Earlier results on 3 molecules are cited in patent publication US9555029B2 (HIKMA PHARMACEUTICALS, priority 2013, dated 2017).

The target in one series is P-gp (Homo sapiens, UniProt P08183). The settings on record: FDA definition; cited from earlier work.
In a further series the target is CYP3A4 (Homo sapiens, UniProt P08684). The note with it: FDA definition of relative strength; cited from earlier work.
Sequence of CYP3A4 (P08684 whole entry): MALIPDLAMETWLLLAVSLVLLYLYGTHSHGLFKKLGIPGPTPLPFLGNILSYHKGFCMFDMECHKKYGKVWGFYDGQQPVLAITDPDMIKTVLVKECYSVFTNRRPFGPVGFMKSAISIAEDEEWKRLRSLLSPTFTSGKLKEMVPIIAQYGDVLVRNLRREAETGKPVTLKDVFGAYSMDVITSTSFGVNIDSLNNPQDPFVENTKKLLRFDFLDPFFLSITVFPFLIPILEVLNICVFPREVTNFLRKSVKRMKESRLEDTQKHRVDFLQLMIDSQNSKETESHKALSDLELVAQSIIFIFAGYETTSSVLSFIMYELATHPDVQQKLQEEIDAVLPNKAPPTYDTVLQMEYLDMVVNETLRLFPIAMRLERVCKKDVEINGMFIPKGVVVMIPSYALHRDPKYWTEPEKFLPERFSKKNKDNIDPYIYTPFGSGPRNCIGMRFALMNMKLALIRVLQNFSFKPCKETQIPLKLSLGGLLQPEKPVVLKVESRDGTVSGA

Sequence of P-gp (P08183 whole entry): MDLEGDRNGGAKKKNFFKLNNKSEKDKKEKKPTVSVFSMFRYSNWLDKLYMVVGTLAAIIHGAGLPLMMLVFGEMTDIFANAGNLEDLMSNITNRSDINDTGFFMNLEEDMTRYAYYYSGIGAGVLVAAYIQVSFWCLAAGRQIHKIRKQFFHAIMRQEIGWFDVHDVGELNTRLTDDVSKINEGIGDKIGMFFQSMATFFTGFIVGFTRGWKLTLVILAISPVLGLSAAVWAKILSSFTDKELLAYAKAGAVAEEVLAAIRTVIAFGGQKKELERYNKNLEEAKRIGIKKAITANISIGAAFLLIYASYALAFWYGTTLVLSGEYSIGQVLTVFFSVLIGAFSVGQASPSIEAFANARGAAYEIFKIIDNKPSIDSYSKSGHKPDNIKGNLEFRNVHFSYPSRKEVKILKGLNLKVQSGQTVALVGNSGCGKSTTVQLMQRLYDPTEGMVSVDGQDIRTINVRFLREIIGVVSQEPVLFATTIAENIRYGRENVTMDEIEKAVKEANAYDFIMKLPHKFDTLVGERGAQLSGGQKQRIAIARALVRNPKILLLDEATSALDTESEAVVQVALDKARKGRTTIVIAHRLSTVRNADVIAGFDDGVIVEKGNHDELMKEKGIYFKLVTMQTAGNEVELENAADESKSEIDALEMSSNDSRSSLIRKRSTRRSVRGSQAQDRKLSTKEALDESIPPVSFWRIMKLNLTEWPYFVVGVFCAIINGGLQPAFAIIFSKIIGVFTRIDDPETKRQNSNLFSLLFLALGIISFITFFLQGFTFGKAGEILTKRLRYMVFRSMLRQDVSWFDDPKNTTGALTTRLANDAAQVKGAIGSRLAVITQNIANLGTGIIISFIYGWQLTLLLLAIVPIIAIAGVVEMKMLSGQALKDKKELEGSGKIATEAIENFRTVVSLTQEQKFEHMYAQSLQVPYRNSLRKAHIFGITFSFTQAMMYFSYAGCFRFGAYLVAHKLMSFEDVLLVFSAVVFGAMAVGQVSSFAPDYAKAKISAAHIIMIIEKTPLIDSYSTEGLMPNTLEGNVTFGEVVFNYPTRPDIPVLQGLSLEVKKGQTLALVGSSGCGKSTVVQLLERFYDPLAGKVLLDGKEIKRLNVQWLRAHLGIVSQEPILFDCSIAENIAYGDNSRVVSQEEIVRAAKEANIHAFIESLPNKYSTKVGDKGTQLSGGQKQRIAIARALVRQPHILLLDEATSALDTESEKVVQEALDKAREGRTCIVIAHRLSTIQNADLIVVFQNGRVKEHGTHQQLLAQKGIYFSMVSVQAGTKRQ

For `CN/C(=N/CCSCc1nc[nH]c1C)NC#N` [Cimetidine, 2-cyano-1-methyl-3-(2-[(5-methyl-1H-imidazol-4-yl)methylthio]ethyl)guanidine], at P-gp, the “Inhibitor of P-gp” value is “not an inhibitor”.

As for `C[C@@H](c1ncncc1F)[C@](O)(Cn1cncn1)c1ccc(F)cc1F` [Voriconazole, (2R,3S)-2-(2,4-difluorophenyl)-3-(5-fluoropyrimidin-4-yl)-1-(1H-1,2,4-triazol-1-yl)butan-2-ol], the “Inhibitor of P-gp” value at P-gp was “not an inhibitor”.

For the molecule `OC(Cn1cncn1)(Cn1cncn1)c1ccc(F)cc1F` [Fluconazole, 2-(2,4-difluorophenyl)-1,3-bis(1H-1,2,4-triazol-1-yl)propan-2-ol], the “Inhibitor of P-gp” value at P-gp is reported as “not an inhibitor”. Further, the “Strength as inhibitor of CYP3A4” value on CYP3A4 is “moderate (“Moderate inhibitors” cause ≧2-fold but <5-fold (i.e., 100-399%) increase in AUC)”.
